Columns and labels:
[1] = tested on: telomerase; assay: Quantitative telomerase detection (telomeric repeat formation + PCR) in skin fibroblasts (donor four AG7308, donor one AG14271) with or without UVB; type: cell-based, human
Description: Culture media: Cells were grown in Minimal Essential Medium supplemented with 10% fetal bovine serum, 2 mM L-glutamine, 2 mM Glutamax I, and 1× MEM non-essential amino acids solution. Cells were washed in the same medium, but without the fetal bovine serum. […] All cultures were incubated at 37° C. with 5% CO2 in a humidified chamber. Seeding of cells: […] Three wells were seeded per test condition or control. Experimental phase: On Day 3, wells were washed 1× with 2 mls medium, fed back 2 mls medium without fetal bovine serum and preincubated for 30-60 minutes before challenge with test or control conditions. […] The green tea polyphenols used were Premier Green Tea Extract Lot #10783, obtained from Pharma Cosmetix Research, LLC (Richmond, Va.). The Green Tea extract was measured into a stock solution of the above described Minimal Essential Media+1% Fetal Bovine Serum in a w/v ratio and then serially diluted into the testing concentrations with MEM+1% Fetal Bovine Serum. Three conditions were tested: […] UVB exposed and unexposed cells without test condition were used as controls. […] Cells from each test and control parameter were then trypsinized, collected by centrifugation, washed 3 times in PBS, and a cell count made using a hemacytometer. The final pellet was stored at −80° C. until processed further. UVB exposure: […] Cells were exposed from the bottom of the culture dish. The UVB dose delivered to the cells was adjusted for interference from the plastic in the culture dish. […] Extract from the cell pellets stored at −80 C post experimental phase was prepared for PCR according to the instructions in the Allied Biotech, Inc, Quantitative Telomerase Detection Kit. Briefly, pellets were thawed and immediately resuspended in 200 ul 1× Lysis Buffer per […]. The suspension was incubated on ice for 30 minutes, then microcentrifuged at 12,000×g for 30 minutes at 4° C. The supernatant was aliquoted and stored at −80° C. Detection of Telomerase: The extract from the cells allows for determination of telomerase activity by coupling the extract's ability to form telomeric repeats onto an oligonucleotide substrate and the resultant extended product are amplified using Polymerase Chain Reaction. These products are then visualized with SYBR green a fluorescent detection agent that emits green fluorescence when bound to the double stranded DNA product. […] The samples were run in a BioRad iCycler for 20 minutes at 25° C. to complete the telomerase reaction. The PCR initial activation step followed immediately and was of 10 minute duration at […]. […] The SYBR green detection occurred during the extension phase. Telomerase Detection Results: […] The raw analysis is provided in DATA TABLE 1. […] Culture media: Cells were grown in Minimal Essential Medium supplemented with 10% fetal bovine serum, 2 mM L-glutamine, 2 mM Glutamax I, and 1×MEM non-essential amino acids solution. Cells were washed in the same medium, but without the fetal bovine serum. […] All cultures were incubated at 37° C. with 5% CO2 in a humidified chamber. Seeding of cells: […] Three wells were seeded per test condition or control. Experimental phase: On Day 3, wells were washed 1× with 2 mls medium, fed back 2 mls medium without fetal bovine serum and preincubated for 30-60 minutes before challenge with test or control conditions. […] The 1% stock solution was also diluted with MEM+1% FBS until the testing concentrations were reached. Three conditions were tested: […] UVB exposed and unexposed cells without test condition were used as controls. […] Cells from each test and control parameter were then trypsinized, collected by centrifugation, washed 3 times in PBS, and a cell count made using a hemacytometer. The final pellet was stored at −80° C. until processed further. UVB exposure: […] Cells were exposed from the bottom of the culture dish. The UVB dose delivered to the cells was adjusted for interference from the plastic in the culture dish. […]

[2] = tested on: TERT, TPP1, TERF1, TERF2, TINF2, POT1; assay: qPCR primer assays of telomere complex genes in skin fibroblasts AG07999; type: cell-based, human; details: 24 hours; 1 uM idebenone, 0.001% coffee cherry; FIG. 7
Description: Cell cultures: A human skin fibroblast cell culture was obtained through the Coriell Cell Repository from the National Institute on Aging Cell Repository. The culture, AG07999, was established from a biopsy of a person. Culture media: Cells were grown in Minimal Essential Medium supplemented with 10% fetal bovine serum, 2 mM L-glutamine, 2 mM Glutamax I. […] All cultures were incubated at 37° C. with 5% CO2 in a humidified chamber. Seeding of cells: […] Experimental phase: […] On Day 5 after 24 hours of exposure to test conditions, the cells were isolated and the RNA isolated using the RT^2q PCR-grade RNA isolation kit (Superarray Bioscience Corporation). […] The RNA was quantified and examined for purity using the 260/280 nm read method in a μQuant spectrophotometer before use in the array. Performance of the qPCR Primer Assays: […] The assay was performed in compliance with manufacturer's guidelines and by recommended manufacturer's protocol as can be found on the World Wide Web at superarray.com/Manual/realtimePCR.pdf. […] Any values out of range of the threshold cycles or inconsistent within the assay were discarded from analysis. qPCR Primer Assay results: The results from assays were determined using the delta CT method, which uses comparisons of control genes and threshold cycles of genes of interest to generate relative expression values (this process is handled by the GeneX package).

COC1=C(OC)C(=O)C(CCCCCCCCCCO)=C(C)C1=O [Idebenone, 6-(10-hydroxydecyl)-2,3-dimethoxy-5-methyl-1,4-benzoquin-one]
Level of telomerase ([1]; donor four UVB + agent 4 hr, compared to UVB Tx Control): −1.07
Level of telomerase ([1]; donor four UVB + agent 4 hr, compared to UnTx Control): 90.51
Level of telomerase ([1]; donor four UVB + agent Continuous, compared to UVB Tx Control): −1.00
Level of telomerase ([1]; donor four UVB + agent Continuous, compared to UnTx Control): 97.01
less telomerase activity than untreated cells ([1]; donor four cells given Idebenone): roughly 53%
telomerase activity ([1]; donor four cells given Idebenone and 1 MED UVB vs UVB stressed cells alone): −1.7 fold
telomerase activity ([1]; donor four cells given Idebenone and 1 MED UVB vs untreated cells): −2.4 fold
Level of telomerase ([1]; donor four idebenone Vs. person idebenone 4 hr): 1.46
telomerase activity ([1]; donor one cells given Idebenone and 1 MED UVB vs UVB treated age matched controls): −2.65 fold
telomerase activity ([1]; donor one cells given Idebenone and 1 MED UVB vs untreated controls): roughly −2.61 fold
telomerase activity (summary in words) ([1]; stressed (UVB) and unstressed cells): decreased level of telomerase activity
TERF1 expression level [2]: effected
TERF2 expression level [2]: effected
